Values after ≈ are worked out from the molar mass of the structure shown. Active and inactive are the calls of the source. No cut-off for these calls is given here.
Tests used:
Cryptococcus neoformans [1] = test: Antifungal activity against Cryptococcus neoformans YC-11 infected in BALB/c mouse assessed as increase in mouse survival at 1 mg/kg, iv qd for 5 days; type: functional, organism-based; set-up: dose 1 mg/kg
Cryptococcus neoformans [2] = test: Antifungal activity against Cryptococcus neoformans YC-11 infected in BALB/c mouse brain assessed as reduction in fungal induced abscesses at 4 mg/kg, iv qd for 5 days measured after 7 days of infection by histopathological analysis; type: functional, organism-based; set-up: dose 4 mg/kg
Cryptococcus neoformans [3] = test: Antifungal activity against Cryptococcus neoformans YC-11 infected in BALB/c mouse assessed as increase in mouse survival at 4 mg/kg, iv qd for 5 days; type: functional, organism-based; set-up: dose 4 mg/kg
Cryptococcus neoformans [4] = test: Antifungal activity against Cryptococcus neoformans YC-11 infected in BALB/c mouse assessed as reduction in fungal burden in brain at 1 mg/kg, iv qd for 5 days measured after 7 days of infection; type: functional
Cryptococcus neoformans [5] = test: Antifungal activity against Cryptococcus neoformans YC-11 infected in BALB/c mouse brain assessed as reduction in multiple fungal induced abscesses at 1 mg/kg, iv qd for 5 days measured after 7 days of infection by histopathological analysis; type: functional, organism-based; set-up: dose 1 mg/kg
Mus musculus = test: Toxicity in BALB/c mouse at 4 mg/kg, iv; type: organism-based; set-up: dose 4 mg/kg, route intravenous; conditions: in vivo
Cryptococcus neoformans [6] = test: Antifungal activity against Cryptococcus neoformans YC-11 by microdilution method; type: functional
Cryptococcus neoformans [7] = test: Antifungal activity against Cryptococcus neoformans YC-11 infected in BALB/c mouse assessed as reduction in fungal burden in brain at 4 mg/kg, iv treated qd for 5 days measured after 7 days of infection; type: functional
Cryptococcus neoformans [8] = test: Antifungal activity against Cryptococcus neoformans YC-11 infected in BALB/c mouse assessed as reduction in fungal burden in brain at 2 mg/kg, iv qd for 5 days measured after 7 days of infection; type: functional
Cryptococcus neoformans [9] = test: Antifungal activity against Cryptococcus neoformans YC-11 infected in BALB/c mouse brain assessed as reduction in multiple fungal induced abscesses at 2 mg/kg, iv qd for 5 days measured after 7 days of infection by histopathological analysis; type: functional, organism-based; set-up: dose 2 mg/kg
Cryptococcus neoformans [10] = test: Antifungal activity against Cryptococcus neoformans YC-11 infected in BALB/c mouse assessed as increase in mouse survival at 0.7 mg/kg, iv qd for 5 days; type: functional, organism-based; set-up: dose 0.7 mg/kg
Cryptococcus neoformans [11] = test: Antifungal activity against Cryptococcus neoformans YC-11 infected in BALB/c mouse liver assessed as reduction in fungal induced liver damage at 0.7 mg/kg, iv qd for 5 days measured after 7 days of infection by histopathological analysis; type: functional, organism-based; set-up: dose 0.7 mg/kg
Cryptococcus neoformans [12] = test: Antifungal activity against Cryptococcus neoformans YC-11 infected in BALB/c mouse kidney assessed as reduction in fungal induced tubular cell necrosis at 0.7 mg/kg, iv treated qd for 5 days measured after 7 days of infection by histopathological analysis; type: functional, organism-based; set-up: dose 0.7 mg/kg
Cryptococcus neoformans [13] = test: Antifungal activity against Cryptococcus neoformans YC-11 infected in BALB/c mouse assessed as increase in mouse survival at 0.5 mg/kg, iv qd for 5 days; type: functional, organism-based; set-up: dose 0.5 mg/kg
Cryptococcus neoformans [14] = test: Antifungal activity against Cryptococcus neoformans YC-11 infected in BALB/c mouse liver assessed as reduction in fungal induced liver damage at 4 mg/kg, iv qd for 5 days measured after 7 days of infection by histopathological analysis; type: functional, organism-based; set-up: dose 4 mg/kg
Cryptococcus neoformans [15] = test: Antifungal activity against Cryptococcus neoformans YC-11 infected in BALB/c mouse assessed as reduction in fungal burden in brain at 80 mg/kg, iv qd for 5 days measured after 7 days of infection; type: functional
Cryptococcus neoformans [16] = test: Antifungal activity against Cryptococcus neoformans YC-11 infected in BALB/c mouse brain assessed as reduction in multiple fungal induced abscesses at 80 mg/kg, iv qd for 5 days measured after 7 days of infection by histopathological analysis; type: functional, organism-based; set-up: dose 80 mg/kg
Cryptococcus neoformans [17] = test: Antifungal activity against Cryptococcus neoformans YC-11 infected in BALB/c mouse assessed as reduction in fungal burden in brain at 20 mg/kg, iv qd for 5 days measured after 7 days of infection; type: functional
Cryptococcus neoformans [18] = test: Antifungal activity against Cryptococcus neoformans YC-11 infected in BALB/c mouse assessed as reduction in fungal burden in brain at 40 mg/kg, iv qd for 5 days measured after 7 days of infection; type: functional
Cryptococcus neoformans [19] = test: Antifungal activity against Cryptococcus neoformans YC-11 infected in BALB/c mouse assessed as increase in mouse survival at 80 mg/kg, iv qd for 5 days; type: functional, organism-based; set-up: dose 80 mg/kg

With `CNc1ccc(C(=O)CC(O)CC[C@H](C)[C@H]2OC(=O)C[C@H](O)CC(=O)C[C@H](O)C[C@H](O)C[C@H](O)C[C@H](O)C[C@]3(O)C[C@H](O)[C@@H](C(=O)NCCN(C)C)C(C[C@@H](OC4O[C@H](C)[C@@H](O)[C@H](NC(=O)CN(C)C)[C@@H]4O)/C=C/C=C/C=C/C=C\C=C/C=C/C=C/[C@@H]2C)O3)cc1.O=C1O[C@H]([C@H](O)CO)C(O)=C1O` (some centres not stated) the Activity (Cryptococcus neoformans [1]) was “Active”, the Activity (Cryptococcus neoformans [2]) was “Active” and the Activity (Cryptococcus neoformans [3]) was “Active”. The log10cfu (Cryptococcus neoformans [4]) was 7.42, the Activity (Cryptococcus neoformans [5]) was “inactive” and the Activity (Mus musculus) was “Non-toxic”. It also gave an MIC (Cryptococcus neoformans [6]) of 0.125 µg/mL, a log10cfu (Cryptococcus neoformans [7]) of 3.45 and a log10cfu (Cryptococcus neoformans [8]) of 6.44. The Activity (Cryptococcus neoformans [9]) was “inactive”.
`C[C@@H]1[C@H](O)[C@@H](C)/C=C/C=C/C=C/C=C/C=C/C=C/C=C/[C@H](O[C@@H]2O[C@H](C)[C@@H](O)[C@H](N)[C@@H]2O)C[C@@H]2O[C@](O)(C[C@@H](O)C[C@@H](O)[C@H](O)CC[C@@H](O)C[C@@H](O)CC(=O)O[C@H]1C)C[C@H](O)[C@H]2C(=O)O` [AMPHOTERICIN B] was tested, and the Activity (Cryptococcus neoformans [10]) was “Active”, the Activity (Cryptococcus neoformans [11]) was “Active” and the Activity (Cryptococcus neoformans [12]) was “inactive”. For the same compound, the Activity (Cryptococcus neoformans [13]) was “Active”, the Activity (Cryptococcus neoformans [14]) was “Active” and the MIC (Cryptococcus neoformans [6]) was 0.25 µg/mL (≈ 0.271 µM).
`OC(Cn1cncn1)(Cn1cncn1)c1ccc(F)cc1F` [FLUCONAZOLE] was tested, and the log10cfu (Cryptococcus neoformans [15]) was 6.34, the Activity (Cryptococcus neoformans [16]) was “inactive” and the log10cfu (Cryptococcus neoformans [17]) was 7.03. The MIC (Cryptococcus neoformans [6]) was 2 µg/mL (≈ 6.53 µM), the log10cfu (Cryptococcus neoformans [18]) was 6.71 and the Activity (Cryptococcus neoformans [19]) was “Active”.
